Consider one molecule from patent US20150352114A1, “MITOTIC KINESIN Eg5 INHIBITING ANTICANCER AGENTS” (THE CLEVELAND CLINIC FOUNDATION, priority 2014, published 2015).

The subject of test [1] is cell lines. The following applies: cited from earlier work.
For test [2], the system named is pCRMP2 (T514) in interphase GSCs. The test can be described thus: CRMP2 phosphorylation immunoblot. It is filed as cell-based, human. Particulars: 200 nM; 6-hour time course; GSCs. As to the method:
FIGS. 8(A-B) illustrate that Eg5 impacts microtubule growth through the CRMP-tubulin deposition pathway; (A) 08-387 GSCs enriched in interphase were exposed to vehicle (DMSO) or ispinesib (200 nM) and harvested for whole cell lysates every two hours over a 6 hour time course. Resulting lysates were probed for CRMP2 and pCRMP2 (T514); (B) Human brain microvascular endothelial cells (HuBrMVECs) were treated with vehicle (DMSO) or ispinesib (200 nM) and harvested for whole cell lysates every three hours over a 6 hour time course. Resulting lysates were probed for CRMP2 and pCRMP2 (T514); For all immunoblots, βactin served as a loading control. Molecular weight (MW) of resulting bands is given in kilodaltons (kD).
Protein extracts were made using a 50 mM Tris pH 8.0, […] NaCl, 0.5% NP-40 lysis solution. Resulting lysates were ran on 10% SDS-PAGE gels and transferred to Immobilon-FL PVDF (Millipore Corp., Billerica, Mass.). The membranes were blocked with 5% (wt/vol) bovine serum albumin in PBS-Tween-20 (0.2% vol/vol) and probed with primary antibodies against Eg5 (mouse, 1:4000, BD Biosciences, San Jose, Calif.), Olig2 (rabbit, 1:1000, abcam, San Francisco, Calif.), GFAP (DAKO; 1:10,000, Carpinteria, Calif.), CRMP2 (mouse, 1:1000, abgent, San Diego, Calif.), pCRMP2(T514) (rabbit, 1:1000, Cell Signaling, Beverly, Mass.), or β-actin (mouse, 1:8000, Sigma-Aldrich, St. Louis, Mo.) as a loading control. Secondary antibodies (LI-COR) were incubated in TBST+0.02% SDS and visualized with the LI-COR Odyssey near infrared imaging system (Lincoln, NB).
On the technique in general: Immunoblotting shows a protein as a band on a membrane.

The subject of test [3] is GSCs from patient derived xenograft 08-387. Nature of the test: Measurement of microtubule dynamics, EB1-EGFP. Type of test: cell-based, human. The following applies: 200 nM; 7 hours. Here is the method:
GSCs from patient derived xenograft 08-387 were cultured in Neurobasal Media, as previously described. Cells were plated on tissue culture dishes coated with GelTrex (Gibco®, Life Technologies, Carslbad, Calif.) and transfected with EB1-EGFP plasmid using FuGene® HD transfection reagent (Promega Corporation, Madison, Wis.) in a 3:1 (FuGene:DNA) ratio. Cells were transferred to GelTrex-coated 35 mm No. 1.5 glass MatTek dishes (MatTek Corporation, Ashland, Mass.) at a density of 50,000 cells per dish 48 hours following transfection, and allowed to adhere overnight prior to imaging. Dynamics measurements were obtained at 30 minutes and 7 hours following addition of vehicle (DMSO) or ispinesib (200 nM) to cell culture media.
Streaming time-lapse images of EB1-EGFP-expressing cells were acquired at 300 ms per frame for 1 minute (200 total frames) at using a Nikon TiE epifluorescence microscope (Nikon Instruments Inc., Melville, N.Y.) equipped with a Zyla 5.5 sCMOS camera (Andor Technology Ltd., Belfast, Ireland) under control of NIS Elements software (Nikon). Fluorescence illumination during imaging was provided by a SpectraX Light Engine® (Lumencor Inc., Beaverton, Oreg.) and a GFP/mCherry filter set (Chroma Technology Corp., Bellows Falls, Vt.). […]

Take `Cc1ccc(C(=O)N(CCCN)[C@@H](c2nc3cc(Cl)ccc3c(=O)n2Cc2ccccc2)C(C)C)cc1` [ispinesib, N-(3-amino-propyl)-n-[R-1-(3-benzyl-7-choloro-4-oxo-3,4-dihydroquinazolin-2-yl)-2-methyl-propyl]-4-methyl-benzamide methanesulfonate]: in test [1], the “efficacy in cell lines tested” value is reported as “nanomolar efficacy”. The “phospho-CRMP2 (T514)” value in test [2] was “significant increase”. Besides, in test [3], the EB1 comet velocity result was “significant increase” and the microtubule growth times result is “reduced microtubule growth times”.
